Measurements published in patent publication US20090104119A1, “Dendrimer Based Compositions And Methods Of Using The Same” (priority 2004, published 2009).

What was measured:
[1] = tested on: KB cells which express a high cell surface FA receptor (FAR); assay: Cellular uptake/binding of dendrimers in high-FAR KB cells, flow cytometry; assay type: cell-based, human
Protocol: (§1) Cell culture and treatment.
(§2) Flow Cytometry and Confocal Microscopy. The standard fluorescence of the dendrimer solutions was quantified using a Beckman spectrofluorimeter. For flow cytometric analysis of the uptake of the targeted polymer, cells were trypsinized and suspended in PBS containing 0.1% bovine serum albumin (PBSB) and analyzed using a Becton Dickinson FACScan analyzer. The FL1-fluorescence of 10,000 cells was measured and the mean fluorescence of gated viable cells was quantified. Confocal microscopic analysis was performed in cells plated on a glass cover-slip, using a Carl Ziess confocal microscope. Fluorescence and differential interference contrast (DIC) images were collected simultaneously using an argon laser, using the appropriate filters for FITC.
The cellular uptake of the dendrimers was measured in KB cells which express a high cell surface FA receptor (FAR). The FA-conjugated dendrimers bound to the cells in a dose-dependent fashion, with 50% binding at 10-15 nM for both the G5-FITC-FA and G5-FITC-FA-MTX, while the control dendrimer G5-FITC was not detected in the KB cells (See, e.g., FIG. 18A). Identical binding curves were obtained for the G5-FITC-FA and G5-FITC-FA-MTX when the fluorescence obtained was normalized for the quenching observed in the standard solutions of the dendrimers (See e.g., FIG. 18B).
(§3) The effect of free FA on the uptake of the dendrimers was tested in KB cells that express both high and low FAR. The binding of the conjugates to the low FAR-expressing KB cells was 30% of that of the high FAR-expressing cells for both the G5-FITC-FA and G5-FITC-FA-MTX (See, for e.g., FIG. 19, left panel). […] The binding and internalization of the dendrimers to KB cells was assessed by confocal microscopy. KB cells were incubated with 250 nM of the indicated dendrimers for 24 hours and confocal images were taken. Conjugates containing the targeting molecule FA internalized into KB cells within 24 h (See, e.g., FIG. 20).

[2] = tested on: low FAR-expressing KB cells; assay: Cellular uptake/binding of dendrimers in low-FAR KB cells, flow cytometry; assay type: cell-based, human
Protocol: as §1, §2, §3
Time course and dose dependent inhibition of cell growth.

[3] = tested on: KB cells; assay: Binding and internalization of dendrimers by confocal microscopy; assay type: cell-based, human; details: 250 nM, 24 hours, compared to control conjugates
Protocol: as §2, §3

[4] = tested on: KB cells; assay: Inhibition of cell growth by XTT assay; assay type: cell-based, human
Protocol: as §1
Evaluation of dendrimer cytotoxicity.
Because the binding of the conjugate to KB cells reaches maximal uptake within 1 h (Quintana et al, 2002. Pharmaceutical Research 19: 1310-1316.), the effect of the G5-FI-FA-MTX on cell growth was initially tested by pre-incubation of cells with the conjugate for 1 h, followed by incubation in a drug-free medium for 5 d. […] When the cells were pre-incubated with dendrimers for 4 h, there was a modest decrease of about 10% in cell growth as determined by XTT assay. The cytotoxicity measurements were therefore done by incubation with the dendrimer for a minimum of 24 h, a pre-incubation time period shown to induce significant cytotoxicity.
The inhibition of cell growth induced by the conjugates was also tested by XTT assay which is based on the conversion of XTT to formazan by the active mitochondria of live cells (See, e.g., Roehm et al, J Immunol Methods 142, 257 (1991)).
As free FA blocks the uptake of the dendrimers as well as rescues cells from MTX-induced cytotoxicity, the effect of pre-incubation of cells with excess FA on the anti-proliferative effect of G5-FITC-FA-MTX was tested. KB cells were exposed to different concentrations of the conjugate or free MTX for 24 h in the absence or presence of 50 μM FA. The incubation medium was removed, the cells were rinsed and incubated with fresh medium for 5 additional days in the absence of the drugs, and the XTT assay was performed (See, e.g., FIG. 24, □, ▪, represents cells treated with MTX; Δ, ▴, represents cells treated with G5-FITC-FA-MTX).
The anti-proliferative effect of the MTX-conjugates was compared to conjugates that lacked either the FA or the FITC molecule. KB cells were incubated with 30 nM of the conjugates (=150 nM effective MTX concentration) for 24 h and the incubation medium was removed. The cells were rinsed and incubated for an additional 5 d in fresh medium in the absence of the drugs, and the XTT assay was performed.

[5] = tested on: s.c. human KB xenografts; assay: Targeted drug delivery, tumor growth and survival in SCID mice with KB xenografts; assay type: in vivo, SCID CB-17 mice
Protocol: Recipient animal and tumor model.
Delivery of targeted nanoparticle therapeutic. Twice weekly, SCID mice with s.c. KB xenografts, starting on day 4 after tumor implantation, received via the tail vein an injection of either targeted or nontargeted conjugate containing methotrexate, a conjugate without methotrexate, free methotrexate, or saline as a control. The compounds were delivered in a 0.2 mL volume of saline per 20 g of mouse. The single dose of methotrexate delivered each time equaled 0.33 mg/kg. The higher doses of 1.67 and 3.33 mg/kg free methotrexate were also tested. The conjugates were delivered at equimolar concentration of methotrexate calculated based on the number of methotrexate molecules present in a nanoparticle. The conjugate without methotrexate was delivered at equimolar concentration of dendrimer. In the initial trial, six groups of mice with five mice in each group received up to 15 injections. In the follow-up trial, mice received up to 28 injections dependent on their survival. The body weights of the mice were monitored throughout the experiment as an indication of adverse effects of the drug. Histopathology of multiple organs was done at the termination of each trial and each time mouse had to be euthanized due to toxic effects or tumor burden. Tissues from lung, heart, liver, pancreas, spleen, kidney, and tumor were analyzed. Additionally, cells were isolated from tumors, stained with targeted fluorescein-labeled conjugate, and tested for the presence of folic acid receptors using flow cytometer.
Targeted drug delivery to tumor cells through the folate receptor. The efficacy of different doses of conjugates was tested on SCID CB-17 mice bearing s.c. human KB xenografts and was compared with equivalent and higher doses of free methotrexate. Mice were maintained on the folic acid-deficient diet for 3 weeks before injection of the KB tumor cells to achieve circulating levels of folic acid that approach those in human serum and to prevent down-regulation of folate receptors on tumor xenografts (See, Mathias et al., J Nucl Med 29, 1579 (1998)). Six groups of SCID mice with five mice in each group were injected s.c. on one flank with 5×10^6 KB cells in 0.2 mL PBS suspension. The highest total dose of G5-FI-FA-MTX therapeutic used equals 55.0 mg/kg and is equivalent to a 5.0 mg/kg total cumulative dose of free methotrexate (FIG. 29). The therapeutic dose of the conjugate was compared with three cumulative doses of free methotrexate equivalent to 33.3, 21.7, and 5.0 mg/kg accumulated in 10 to 15 injections based on mouse survival. Saline and the conjugate without methotrexate (G5-FI-FA) were used as controls.

For “G5-(Ac)82-(FITC)5-(FA)5-MTX5 [G5-FITC-FA-MTX]”, the “time to maximal binding” value ([1]; 100 nM) was no more than 30 min, the “effect of free FA on uptake, high-FAR expressing cells” value ([1]; 50 μM FA, dendrimer 30 nM) was “completely blocked” and the “binding to low FAR-expressing KB cells relative to high FAR-expressing cells” value [2] was 30%. The “effect of free FA on uptake, low-FAR expressing cells” value ([2]; 50 μM FA, dendrimer 30 nM) was “completely blocked”, the “cell morphology indicating cytotoxicity” value [3] was “less adherent and rounded up” and the “inhibition of cell growth, XTT” value ([4]; 1, 2 or 3 days) was “time-dependent cytotoxicity”. The “decrease in cell growth” value ([4]; pre-incubated 4 h, XTT assay) was “about 10%”, the growth-inhibitory effect ([4]; pre-incubation 1 h, then drug-free medium 5 d) was “failed to show any growth-inhibitory effect” and the “effect on tumor growth” value ([5]; first trial, up to 15 injections, cumulative 5.0 mg/kg methotrexate equivalents or equimolar dendrimer) was “as equally effective as the second highest dose of free methotrexate”. For the same substance, the “survivors at the termination of the trial” value ([5]; second 99-day trial) was “two (of eight)” and the “tumor growth versus G5-FI-MTX, free methotrexate or saline” value ([5]; second 99-day trial, P<0.05) was “slower growth of tumors”.
